The record followed here is US7576099B2, “Amide derivatives as ion-channel ligands and pharmaceutical compositions and methods of using the same” (Renovis, Inc., priority 2005, dated 2009).

Data set [1] addresses T1, VR1 (Homo sapiens, UniProt Q8NER1). Description: Calcium uptake assay (Fura2, Flex Station) in HEK 293 cells expressing hVR1. Type of data set: cell-based. The arrangement: expressed in transfected cells; host or cells: T-REx HEK 293 (Invitrogen), pcDNA5/TO vector, doxycycline induced. The following applies: for inhibition at 0.3 µM: HEK293, read-out: Low pH % Inhib. @ 0.3 μM; for inhibition of the Capsaicin induced intracellular calcium response (FIGS. 2-6): 3 nM compound, capsaicin as agonist, calcium uptake assay method. On the technique in general: Calcium assays in cells follow changes in intracellular calcium, usually with a dye or a luminescent sensor.
Target sequence in this assay (Q8NER1 whole entry): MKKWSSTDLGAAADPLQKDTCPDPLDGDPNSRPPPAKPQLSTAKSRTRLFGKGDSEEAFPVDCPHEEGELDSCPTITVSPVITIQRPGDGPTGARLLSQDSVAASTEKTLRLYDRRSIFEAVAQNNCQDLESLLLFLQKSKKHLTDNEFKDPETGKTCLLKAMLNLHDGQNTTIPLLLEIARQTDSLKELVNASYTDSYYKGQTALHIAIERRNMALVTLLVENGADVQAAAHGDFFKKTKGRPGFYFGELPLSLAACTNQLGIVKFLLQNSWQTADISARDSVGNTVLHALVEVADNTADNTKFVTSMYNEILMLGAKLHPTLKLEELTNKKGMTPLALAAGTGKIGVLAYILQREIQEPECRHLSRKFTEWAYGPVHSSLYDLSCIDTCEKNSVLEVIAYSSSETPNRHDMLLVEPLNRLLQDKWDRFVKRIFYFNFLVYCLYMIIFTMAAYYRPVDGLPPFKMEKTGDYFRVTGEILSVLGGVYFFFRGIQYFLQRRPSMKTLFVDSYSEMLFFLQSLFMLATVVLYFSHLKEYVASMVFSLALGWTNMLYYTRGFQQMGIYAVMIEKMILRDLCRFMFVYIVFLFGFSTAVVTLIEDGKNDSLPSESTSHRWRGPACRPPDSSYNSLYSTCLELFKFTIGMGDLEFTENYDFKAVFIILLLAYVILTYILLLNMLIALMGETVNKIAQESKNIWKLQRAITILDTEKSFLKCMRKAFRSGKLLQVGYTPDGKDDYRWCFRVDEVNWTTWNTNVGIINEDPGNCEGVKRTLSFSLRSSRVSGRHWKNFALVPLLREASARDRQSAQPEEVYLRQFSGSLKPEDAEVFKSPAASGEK

The next data set deals with VR1 receptor. Description: Calcium imaging assay in DRG neurons (Example 1). Type of data set: cell-based. As to conditions: 3 nM compound. As for the experimental part:
Therefore the functional activity of compounds at the VR1 receptor may be determined by measuring changes in intracellular calcium levels in neurons such as the dorsal root ganglion. […] Prior to assay, cells were loaded with 5 μg/ml Fura2 in normal saline solution at 37° C. for 40 minutes. Cells were then washed with normal saline to remove dye before commencement of the experiment. The plated neurons were transferred into a chamber on the stage of a Nikon eclipse TE300 microscope after which neurons were allowed to attain a stable fluorescence for about 10 minutes before beginning the experiment. The assay consists of two stages, a pretreatment phase followed by a treatment phase. First, a solution of the test compound was added from a multivalve perfusion system to the cells for 1 minute (pretreatment). […] Fura2 was excited at 340 and 380 nm to indicate relative calcium ion concentration. Changes in wavelength measurements were made throughout the course of the experiment. The fluorescence ratio was calculated by dividing fluorescence measured at 340 nm by that at 380 nm. Data were collected using Intelligent Imaging's Slidebook software.

The target of data set [2] is T1, VR1. The data set can be described thus: Acid stimulation assay (FDSS 6000, intracellular calcium). The following applies: final assay buffer pH5.8, 15 minutes pre-incubation. Details: host or cells: only 'the cell suspension' is mentioned. Type of data set: cell-based. As for the experimental part:
The Acid-induced changes in the intracellular calcium concentration were monitored using FDSS 6000 (Hamamatsu Photonics, Japan), a fluorometric imaging system. The cell suspension in resting buffer (HBSS supplemented with 10 mM HEPES, pH 7.4) was pre-incubated with varying concentrations of the test compounds or resting buffer (buffer control) for 15 minutes at room temperature under dark conditions. The cells were automatically added the stimulating solution (HBSS supplemented with MES, final assay buffer pH5.8) by the FDSS 6000.
Target sequence in this assay (Q8NER1 whole entry, species assumed): as the sequence (Q8NER1 whole entry) above

A short description of data set [3]: Half-life in human liver microsomes (HLM). Type of data set: in vitro ADME. The following applies: human liver microsomes (HLM, HL101), pH 7.4, 1 μM compound, 0.78 mg/mL HLM, NADPH, 37° C. On the procedure: Test compounds (1 μM) were incubated with 3.3 mM MgCl2 and 0.78 mg/mL HLM (HL101) in 100 mM potassium phosphate buffer (pH 7.4) at 37° C. on the 96-deep well plate. The reaction mixture was split into two groups, a non-P450 and a P450 group. NADPH was only added to the reaction mixture of the P450 group. An aliquot of samples of P450 group was collected at 0, 10, 30, and 60 min time point, where 0 min time point indicated the time when NADPH was added into the reaction mixture of P450 group. An aliquot of samples of non-P450 group was collected at −10 and 65 min time point. Collected aliquots were extracted with acetonitrile solution containing an internal standard. The precipitated protein was spun down in centrifuge (2000 rpm, 15 min). The compound concentration in supernatant was measured by LC/MS/MS system.
The half-life value was obtained by plotting the natural logarithm of the peak area ratio of compounds/internal standard versus time. The slope of the line of best fit through the points yields the rate of metabolism (k). […]
Exemplary compounds of the invention were tested (1 μM), and were incubated with 3.3 mM MgCl2 and 0.78 mg/mL HLM (HL101) in 100 mM potassium phosphate buffer (pH 7.4) at 37° C. on the 96-deep well plate. […] The compound concentration in supernatant was measured by LC/MS/MS system. […]
(Liver microsomes are vesicles of endoplasmic reticulum, rich in cytochrome P450 enzymes.)

Where [4] appears, read: 0.3 μM compound, low pH (protons) as agonist, HEK 293 cells expressing hVR1.

Take `Cc1cc2c(NC(=O)c3ccc(/C=C/C(F)(F)F)cc3)cccc2nn1` [Compound 113]: the inhibition at 0.3 µM at VR1 [1] (setting [4]) turned out to be 9%.
As to `O=C(Nc1ccc2c(c1)NCCO2)c1ccc(/C=C/C(F)(F)F)cc1` [Compound 62], the inhibition at 0.3 µM on VR1 [1] (setting [4]) was found to be 14%.
As for `Cc1cc(/C=C/C(F)(F)F)ccc1C(=O)Nc1cnc2ccccc2c1` [Compound 187], the “inhibition of the Capsaicin induced intracellular calcium response (FIGS. 2-6)” value at VR1 [1] is “significant inhibition”.
As for `Cc1cc(/C=C/C(F)(F)F)ccc1C(=O)Nc1cnc2c(c1)OCC(O)CN2` (stereo not drawn) [Compound 189], the inhibition at 0.3 µM on VR1 [1] (setting [4]) stood at 87%.
As for `Cc1cc(/C=C/C(F)(F)F)ccc1C(=O)Nc1cnc2c(c1)OCC(CO)N2` (stereo not drawn) [Compound 233], the “inhibition of the Capsaicin induced intracellular calcium response (FIGS. 2-6)” value at VR1 [1] was “significant inhibition”.
On the same count and under the same terms, the result for `C/C(=C\C(F)(F)F)c1ccc(C(=O)Nc2ccc3c(c2)OCCN3)cc1` [Compound 96] reads “significant inhibition”.
On the same count and under the same terms, the result for `O=C(Nc1cccc2cnccc12)c1ccc(C#CC(F)(F)F)cc1` [Compound 45] reads “significant inhibition”.
As to `CN1CCC(C)(C)c2ccc(NC(=O)c3ccc(C#CC(C)(C)C)cc3)cc21` [Compound 59], the inhibition at 0.3 µM at VR1 [1] (setting [4]) amounted to 83%.
Consider `Cc1cc(/C=C/C(F)(F)F)ccc1C(=O)Nc1ccc2sc(CO)nc2c1` [Compound 225], for which the “inhibition of the Capsaicin induced intracellular calcium response (FIG. 1)” value in the data set with VR1 receptor was “significant inhibition”; with VR1 receptor (listed as compound 225), “reduced”. In addition, the “% inhibition of capsaicin induced calcium influx” value in the data set with VR1 receptor (treatment time 20 sec, capsaicin 250 nM) is recorded as greater than 75%.
Consider `CC1(C)CNc2cc(NC(=O)c3ccc(/C=C/C(F)(F)F)cc3)ccc2O1` [Compound 64], for which the inhibition at 0.3 µM on VR1 [1] (setting [4]) stood at 10%.
Turning to `Cc1cc(C#CC(C)(C)C)ccc1C(=O)Nc1ccc2c(c1)OCC(CO)N2` (stereo not drawn) [Compound 167], on VR1 [1], the “inhibition of the Capsaicin induced intracellular calcium response (FIGS. 2-6)” value is “significant inhibition”.
On to `O=C1COc2ccc(NC(=O)c3ccc(/C=C/C(F)(F)F)cc3)cc2N1` [Compound 57], for which the inhibition at 0.3 µM at VR1 [1] (setting [4]) was found to be 58%.
The same measure, in the same setting: the value for `O=C(Oc1ccc2c(c1)OC(CO)CO2)c1ccc(C#CC2CC2)cc1` (stereo not drawn) [Compound 86] was 83%; that for `O=C1COc2cc(NC(=O)c3ccc(/C=C/C(F)(F)F)cc3)ccc2N1` [Compound 61] was 10%.
Same read-out and setting: the value for `CC1(C)Oc2ccc(NC(=O)c3ccc(/C=C/C(F)(F)F)cc3)cc2NC1=O` [Compound 58] was 19%.
Take `O=C(Nc1ccc2c(c1)OCCN2)c1ccc(C#CC(F)(F)F)cc1` [Compound 70]: the IC50 (usually the concentration that gives 50% inhibition) at VR1 [2] came out at 5 nM. Also, the “Low pH % Inhib. @ 0.3 μM” value on VR1 [1] (setting [4]) is 185%.
As for `O=C(Nc1ccc2c(c1)OCC(CO)O2)c1ccc(/C=C/C(F)(F)F)cc1` (single isomer, unassigned) [Compound 108], at VR1 [2], the IC50 came to 5 nM.
`Cc1cc(/C=C/C(F)(F)F)ccc1C(=O)NC1=CC2CNCCC2N=C1` (stereo not drawn) [Compound 229]: the inhibition at 0.3 µM at VR1 [1] (setting [4]) was found to be 54%.
On to `O=C(Nc1ccc2c(c1)OCCN2)c1ccc(/C=C/C(F)(F)F)cc1` [Compound 63], for which the half-life (in general, the time in which the quantity being followed falls by half) at 1 μM in data set [3] is 24 min. In addition, the inhibition at 0.3 µM on VR1 [1] (setting [4]) amounted to 123%.
As for `O=C(Oc1ccc2c(c1)OCC(CO)O2)c1ccc(C#CC2CC2)cc1` (stereo not drawn) [Compound 87], at VR1 [1] (setting [4]), the inhibition at 0.3 µM was found to be 98%.
Same read-out and setting: the value for `CC(C)(C)C#Cc1ccc(C(=O)Nc2cnc3ccccc3c2)cn1` [Compound 24] was 101%.
As for `CC(C)(C)C#Cc1ccc(C(=O)Nc2cccc3cnccc23)cc1OCCN1CCOCC1` [Compound 60], in data set [3], the half-life at 1 μM was 21 min. Also, the inhibition at 0.3 µM at VR1 [1] (setting [4]) amounted to 69%.
